# Measurements taken from ChEMBL document CHEMBL5046228 (Eur J Med Chem, 2022).
# pIC50: −log10 of the molar value.
# Columns and labels:
# [1] = molecular target: Epidermal growth factor receptor (Homo sapiens, UniProt P00533, C797S/T790M); assay: Inhibition of EGFR T790M/C797S double mutant (unknown origin) using flurogenic substrate in presence of ATP by HTRF assay
# [2] = Selectivity index, ratio of IC50 Inhibition of wild type EGFR (unknown origin) to IC50 for Inhibition of EGFR T790M/C797S double mutant (unknown origin)
# [3] = molecular target: Epidermal growth factor receptor (Homo sapiens, UniProt P00533, EX19DEL); assay: Inhibition of EGFR del19 (unknown origin) using flurogenic substrate in presence of ATP by HTRF assay
# Epidermal growth factor receptor (Homo sapiens, UniProt P00533, EX19DEL), sequence (P00533 whole entry, looked up, stated change not applied): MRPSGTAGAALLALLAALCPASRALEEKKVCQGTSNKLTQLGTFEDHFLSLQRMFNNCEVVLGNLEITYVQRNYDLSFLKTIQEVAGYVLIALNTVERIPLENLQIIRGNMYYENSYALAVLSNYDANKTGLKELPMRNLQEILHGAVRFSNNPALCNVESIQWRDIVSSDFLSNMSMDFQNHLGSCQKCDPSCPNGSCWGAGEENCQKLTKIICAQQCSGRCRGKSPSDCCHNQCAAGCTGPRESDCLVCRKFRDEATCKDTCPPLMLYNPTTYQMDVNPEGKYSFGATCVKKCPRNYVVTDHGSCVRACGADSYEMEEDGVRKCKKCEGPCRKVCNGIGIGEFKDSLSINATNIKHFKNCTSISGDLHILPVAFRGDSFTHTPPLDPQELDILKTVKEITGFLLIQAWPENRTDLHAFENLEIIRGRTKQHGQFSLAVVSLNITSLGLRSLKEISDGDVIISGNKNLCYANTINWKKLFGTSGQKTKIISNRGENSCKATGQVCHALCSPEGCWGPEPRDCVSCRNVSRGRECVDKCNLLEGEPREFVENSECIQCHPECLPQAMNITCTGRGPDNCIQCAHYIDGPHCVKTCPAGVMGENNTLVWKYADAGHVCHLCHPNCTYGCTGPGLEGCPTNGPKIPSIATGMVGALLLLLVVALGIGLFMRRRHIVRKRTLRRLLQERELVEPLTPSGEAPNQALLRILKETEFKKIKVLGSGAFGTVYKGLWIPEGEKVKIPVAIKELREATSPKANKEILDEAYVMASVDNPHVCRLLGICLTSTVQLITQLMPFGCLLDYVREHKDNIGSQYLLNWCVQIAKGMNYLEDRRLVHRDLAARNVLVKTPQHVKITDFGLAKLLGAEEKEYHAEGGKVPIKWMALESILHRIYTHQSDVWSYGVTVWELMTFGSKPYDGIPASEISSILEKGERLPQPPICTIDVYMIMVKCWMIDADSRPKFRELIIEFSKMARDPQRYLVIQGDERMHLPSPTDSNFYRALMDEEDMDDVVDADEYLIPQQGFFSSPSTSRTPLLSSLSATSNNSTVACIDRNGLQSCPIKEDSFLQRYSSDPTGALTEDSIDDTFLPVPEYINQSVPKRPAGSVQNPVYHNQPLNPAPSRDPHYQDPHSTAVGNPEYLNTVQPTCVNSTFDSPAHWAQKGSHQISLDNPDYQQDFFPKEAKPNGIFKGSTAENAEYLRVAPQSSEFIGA
# [4] = molecular target: Epidermal growth factor receptor (Homo sapiens, UniProt P00533); assay: Inhibition of wild type EGFR (unknown origin) using flurogenic substrate in presence of ATP by HTRF assay
# Epidermal growth factor receptor (Homo sapiens, UniProt P00533), sequence (P00533 whole entry): as the sequence (P00533 whole entry, looked up, stated change not applied) above
# [5] = test system: NCI-H1975; assay: cells; type: functional, cell-based; details: Homo sapiens, NCI-H1975, 72 h
# [6] = test system: NCI-H1299; assay: Antiproliferative activity against human NCI-H1299 cells expressing wild type EGFR assessed as inhibition in cell viability after 72 hrs by CCK8 assay; type: functional, cell-based; details: NCI-H1299, 72 h
# [7] = test system: A549; assay: Antiproliferative activity against human A549 cells expressing wild type EGFR assessed as inhibition in cell viability after 72 hrs by CCK8 assay; type: functional, cell-based; details: A549, 72 h
# [8] = test system: HCC827; assay: Antiproliferative activity against human HCC827 cells expressing EGFR del119 mutant assessed as inhibition in cell viability after 72 hrs by CCK8 assay; type: functional, cell-based; details: HCC827, 72 h
# [9] = in vitro; details: human
# [10] = in vitro; details: human; remark: listed apart in the source
# [11] = test system: NCI-H1299; assay: Induction of cell cycle arrest in human NCI-H1299 cells assessed as accumulation at S phase at 2.5 uM after 36 hrs by PI staining based flow cytometry analysis (reference value: 24.8%); type: functional
# [12] = test system: NCI-H1299; assay: Induction of apoptosis in human NCI-H1299 cells assessed as increase in viable cells at 2.5 uM after 36 hrs by annexin-V-FITC/PI staining based flow cytometric analysis (reference value: 94.1%); type: functional
# [13] = test system: NCI-H1299; assay: Induction of cell cycle arrest in human NCI-H1299 cells assessed as accumulation at G0/G1 phase at 2.5 uM after 36 hrs by PI staining based flow cytometry analysis (reference value: 70.2%); type: functional
# [14] = test system: NCI-H1975; assay: Induction of cell cycle arrest in human NCI-H1975 cells assessed as accumulation at G0/G1 phase at 2.5 uM after 36 hrs by PI staining based flow cytometry analysis (reference value: 24.2%); type: functional
# [15] = test system: NCI-H1975; assay: Induction of apoptosis in human NCI-H1975 cells assessed as increase in viable cells at 2.5 uM after 36 hrs by annexin-V-FITC/PI staining based flow cytometric analysis (reference value: 94.6%); type: functional
# [16] = test system: NCI-H1975; assay: Induction of apoptosis in human NCI-H1975 cells assessed as increase in necrotic cells at 2.5 uM after 36 hrs by annexin-V-FITC/PI staining based flow cytometric analysis (reference value: 0.35%); type: functional
# [17] = test system: NCI-H1975; assay: Induction of apoptosis in human NCI-H1975 cells assessed as increase in early apoptotic cells at 2.5 uM after 36 hrs by annexin-V-FITC/PI staining based flow cytometric analysis (reference value: 1.24%); type: functional
# [18] = test system: NCI-H1299; assay: Induction of apoptosis in human NCI-H1299 cells assessed as increase in necrotic cells at 2.5 uM after 36 hrs by annexin-V-FITC/PI staining based flow cytometric analysis (reference value: 0.75%); type: functional
# [19] = test system: NCI-H1299; assay: Induction of apoptosis in human NCI-H1299 cells assessed as increase in early apoptotic cells at 2.5 uM after 36 hrs by annexin-V-FITC/PI staining based flow cytometric analysis (reference value: 0.79%); type: functional
# [20] = test system: NCI-H1975; assay: Induction of cell cycle arrest in human NCI-H1975 cells assessed as accumulation at G2/M phase at 2.5 uM after 36 hrs by PI staining based flow cytometry analysis (reference value: 43.1%); type: functional
# [21] = test system: NCI-H1299; assay: Induction of apoptosis in human NCI-H1299 cells assessed as increase in late apoptotic cells at 2.5 uM after 36 hrs by annexin-V-FITC/PI staining based flow cytometric analysis (reference value: 4.39%); type: functional
# [22] = test system: NCI-H1975; assay: Induction of cell cycle arrest in human NCI-H1975 cells assessed as accumulation at S phase at 2.5 uM after 36 hrs by PI staining based flow cytometry analysis (reference value: 32.7 %); type: functional
# [23] = test system: NCI-H1975; assay: Induction of apoptosis in human NCI-H1975 cells assessed as increase in late apoptotic cells at 2.5 uM after 36 hrs by annexin-V-FITC/PI staining based flow cytometric analysis (reference value: 3.85%); type: functional
# [24] = test system: NCI-H1299; assay: Induction of cell cycle arrest in human NCI-H1299 cells assessed as accumulation at G2/M phase at 2.5 uM after 36 hrs by PI staining based flow cytometry analysis (reference value: 5.6%); type: functional
# Epidermal growth factor receptor (Homo sapiens, UniProt P00533, C797S/T790M), sequence (P00533 25-1210 T790M/C797S limits assumed): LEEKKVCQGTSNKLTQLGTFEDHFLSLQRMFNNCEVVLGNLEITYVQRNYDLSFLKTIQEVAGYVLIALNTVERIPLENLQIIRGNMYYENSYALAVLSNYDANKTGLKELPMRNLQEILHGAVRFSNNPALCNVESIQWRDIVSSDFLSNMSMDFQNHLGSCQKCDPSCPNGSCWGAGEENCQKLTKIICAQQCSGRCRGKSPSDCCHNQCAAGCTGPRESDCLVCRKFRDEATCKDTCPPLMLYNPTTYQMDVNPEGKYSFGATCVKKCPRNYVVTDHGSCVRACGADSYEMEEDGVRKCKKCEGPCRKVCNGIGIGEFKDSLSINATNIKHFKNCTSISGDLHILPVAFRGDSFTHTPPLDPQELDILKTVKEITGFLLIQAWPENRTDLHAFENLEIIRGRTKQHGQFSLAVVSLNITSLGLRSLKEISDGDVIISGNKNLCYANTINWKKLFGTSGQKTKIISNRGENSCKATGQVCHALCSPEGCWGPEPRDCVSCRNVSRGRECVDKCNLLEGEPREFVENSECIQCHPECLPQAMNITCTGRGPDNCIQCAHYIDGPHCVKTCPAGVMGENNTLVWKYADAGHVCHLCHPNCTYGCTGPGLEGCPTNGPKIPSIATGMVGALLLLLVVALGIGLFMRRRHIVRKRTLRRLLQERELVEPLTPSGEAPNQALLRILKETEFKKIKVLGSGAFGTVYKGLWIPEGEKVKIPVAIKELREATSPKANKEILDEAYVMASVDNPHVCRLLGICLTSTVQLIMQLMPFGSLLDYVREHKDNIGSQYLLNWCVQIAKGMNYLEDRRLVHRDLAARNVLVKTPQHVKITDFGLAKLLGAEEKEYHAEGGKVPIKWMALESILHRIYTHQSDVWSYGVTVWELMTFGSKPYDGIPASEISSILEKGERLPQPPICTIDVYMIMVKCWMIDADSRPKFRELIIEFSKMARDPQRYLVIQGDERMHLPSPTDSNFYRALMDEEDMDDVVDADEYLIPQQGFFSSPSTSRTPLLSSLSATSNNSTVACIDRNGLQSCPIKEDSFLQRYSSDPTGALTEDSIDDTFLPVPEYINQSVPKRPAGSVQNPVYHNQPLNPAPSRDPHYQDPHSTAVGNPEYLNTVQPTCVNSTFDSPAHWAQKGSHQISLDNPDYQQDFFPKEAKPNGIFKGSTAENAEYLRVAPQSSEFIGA
pIC50 [1],Ratio IC50 [2],pIC50 [3],pIC50 [4],pIC50 [6],pIC50 [7],pIC50 [8],SMILES,also measured
7.91,235,6.67,5.54,–,–,–,C=CC(=O)Nc1cc(Nc2nccc(Nc3cn(C)c4ccccc34)n2)c(OC)cc1N(C)CCN(C)C(=O)OC,–
6.40,8.02,6.20,5.50,–,–,–,C=CC(=O)Nc1cc(Nc2nccc(Nc3ccn(C)n3)n2)c(OC)cc1N(C)CCN(C)CC(=C)C,–
8.70,21.3,7.88,7.37,5.75,5.86,7.61,C=CCCN(C)CCN(C)c1cc(OC)c(Nc2nccc(Nc3cn(C)c4ccccc34)n2)cc1NC(=O)C=C,pIC50 [5]: 8.70; selectivity ratio [9]: 687; selectivity ratio [10]: 881
8.21,15.6,7.90,7.02,–,–,–,C=CC(=O)Nc1cc(Nc2nccc(Nc3ccn(C)n3)n2)c(OC)cc1N(C)CCN(C)C,–
8.07,5.92,7.65,7.29,–,–,–,C#CCN(C)CCN(C)c1cc(OC)c(Nc2nccc(Nc3ccn(C)n3)n2)cc1NC(=O)C=C,–
8.24,31.4,7.19,6.74,–,–,–,C=CC(=O)Nc1cc(Nc2nccc(Nc3cn(C)c4ccccc34)n2)c(OC)cc1N(C)CCN(C)CC(=C)C,–
7.90,> 797,6.52,< 5.00,< 4.00,< 4.00,5.15,C=CC(=O)Nc1cc(Nc2nccc(Nc3cn(C)c4ccccc34)n2)c(OC)cc1N(C)CCN(C)C(=O)c1ccc(Br)cc1,pIC50 [5]: 7.42; selectivity ratio [9]: 3370; selectivity ratio [10]: 3370
7.37,22.5,6.97,6.02,–,–,–,C=CC(=O)Nc1cc(Nc2nccc(Nc3ccn(C)n3)n2)c(OC)cc1N(C)CCN(C)CC(=O)OC,–
7.67,23.1,7.26,6.31,–,–,–,C=CC(=O)Nc1cc(Nc2nccc(Nc3cnn(C)c3)n2)c(OC)cc1N(C)CCN(C)C,–
6.30,9.84,6.54,5.31,–,–,–,C=CC(=O)Nc1cc(Nc2nccc(Nc3ccn(C)n3)n2)c(OC)cc1N(C)CCN(C)C(=O)OC,–
7.24,> 172,6.02,< 5.00,–,–,–,C=CC(=O)Nc1cc(Nc2nccc(Nc3cn(C)c4ccccc34)n2)c(OC)cc1N(C)CCN(C)C(=O)C#CC,–
8.09,304,6.85,5.61,< 4.00,< 4.00,5.19,C=CC(=O)Nc1cc(Nc2nccc(Nc3cn(C)c4ccccc34)n2)c(OC)cc1N(C)CCN(C)Cc1ccc(Br)cc1,pIC50 [5]: 7.53; selectivity ratio [9]: 2640; selectivity ratio [10]: 2640
8.10,12.5,7.73,7.00,–,–,–,C=CC(=O)Nc1cc(Nc2nccc(Nc3cnn(CC)c3)n2)c(OC)cc1N(C)CCN(C)C,–
7.44,> 273,6.14,< 5.00,–,–,–,C=CC(=O)Nc1cc(Nc2nccc(Nc3cn(C)c4ccccc34)n2)c(OC)cc1N(C)CCN(C)C(=O)C=C,–
–,–,–,–,5.40,5.58,6.93,C=CC(=O)Nc1cc(Nc2nccc(Nc3cn(C)c4ccccc34)n2)c(OC)cc1N(C)CCN(C)Cc1ccccc1,pIC50 [5]: 8.40
8.25,12.6,7.94,7.15,–,–,–,C=CC(=O)Nc1cc(Nc2nccc(Nc3cn(C)nc3C)n2)c(OC)cc1N(C)CCN(C)C,–
8.24,78.8,7.33,6.34,5.28,5.28,6.46,C=CC(=O)Nc1cc(Nc2nccc(Nc3cn(C)c4ccccc34)n2)c(OC)cc1N(C)CCN(C)CC(=O)OC,pIC50 [5]: 8.08; selectivity ratio [9]: 624; selectivity ratio [10]: 637

SMILES,pIC50 [1],Ratio IC50 [2],pIC50 [3],pIC50 [4],pIC50 [6],pIC50 [7],pIC50 [8],also measured
C=CC(=O)Nc1cc(Nc2nccc(-c3cn(C)c4ccccc34)n2)c(OC)cc1N(C)CCN(C)C [OSIMERTINIB],–,–,–,–,5.55,6.47,8.76,Activity [11]: 24.3%; Activity [12]: 90.7%; Activity [13]: 67.3%; Activity [14]: 17.1%; Activity [15]: 41.1%; Activity [16]: 0.016%; Activity [17]: 40.8%; Activity [18]: 0.43%; Activity [19]: 1.47%; Activity [20]: 65.4%; Activity [21]: 7.44%; Activity [22]: 17.5%; Activity [23]: 18.1%; Activity [24]: 8.4%
